Test [1] addresses human PCSK9 / human LDLR EGFa domain interaction (Homo sapiens, UniProt Q8NBP7). Briefly: TR-FRET assay of inhibition of the PCSK9-LDLR protein-protein interaction. The test is classed as binding. As to conditions: 20 nM biotinylated human PCSK9 + 20 nM his-tagged human LDLR EGFa domain, 2 hours room temperature. In a few lines:
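Biotinylated human PCSK9 (20 nM) and His-tagged human LDLR EGFa domain (20 nM) incubated with Ulight-streptavidin and Eu-anti-His (5 nM each), 2 h at room temperature, in HEPES pH buffer with 5 mM CaCl2. TR-FRET read-out; IC50 from 4-parameter fit of dose-response.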

Another test addresses T1, PCSK9 (Homo sapiens, UniProt Q8NBP7).
T1 construct: biotin (biotinylated)
Briefly: PCSK9 Alexa FRET Standard assay (displacement of AlexaFluor647-tagged cyclic peptide Reagent A). Type of test: binding. The note with it: 0.5 nM PCSK9, 20 nM AF cyclic peptide Reagent A. The method, then:
A solution containing 1 nM biotinylated PCSK9+2.5 nM Lance Streptavidin Europium (Strep-Eu) was made in 50 mM HEPES pH 7.4, 0.15 M NaCl, 5 mM CaCl2, 0.01% BSA, and 0.01% Surfactant P20. A separate solution containing 40 nM of the AlexaFluor tagged cyclic peptide was made in the same buffer system. An Echo was used to transfer 0.750 ul of compound to an assay plate followed by the addition of 15 ul of PCSK9+Stept-Eu and 15 ul of AF peptide. The final assay volume was 30.750 ul containing 0.5 nM PCSK9, 1.25 nM Strep-Eu, and 20 nM AF cyclic peptide. The reaction was incubated at room temperature for at least two hours prior to fluorescence measurements using an Envision Multilabel Reader. IC50 values were determined by fitting data to a sigmoidal dose-response curve using nonlinear regression. Ki was then calculated from the IC50 and the KD of AF cyclic peptide. Counts (B-counts) of the europium-labeled PCSK9 were followed to observe if compounds were […]. A fall off of the B-counts likely indicated a false positive of inhibition. Data from this procedure was reported as “A=‘numerical value’ (nanomolar)”

We go through 10 compounds from patent publication US11505575B2, “Cyclic polypeptides for PCSK9 inhibition” (Merck Sharp & Dohme LLC, priority 2018, dated 2022).

*1 amine or outer side, *2 acyl side, *3 side chain or, on linkers, in order; H or OH if unused. Where a SMILES comes first, the peptide text is derived from it. Bridges are numbered along the chain shown (N, C = ends). [ ]: non-standard residue; d: D form. X6 = C[C@@H](O)[C@H](CC(=O)[C@H](Cc1cnc[nH]1)N[*:1])C(=O)[*:2]; αMeNva(5-ylidene) = C[C@@](CCC=[*:3])(N[*:1])C(=O)[*:2]; Ala(4-isoquinolinyl) = N[C@@H](Cc1cncc2ccccc12)C(=O)O; Trp(βS-Me) = C[C@@H](c1c[nH]c2ccccc12)[C@H](N)C(=O)O; Phe(4-guanidino) = N=C(N)Nc1ccc(C[C@H](N)C(=O)O)cc1; X4 = O=C([C@H](Cc1cc2cc(F)ccc2[nH]1)N[*:1])[*:2]; X3 = N=C(N)NCc1ccc(C[C@H](N[*:1])C(=O)[*:2])cc1; Trp(7-aza) = N[C@@H](Cc1c[nH]c2ncccc12)C(=O)O; Phe(4-CH2NH2) = NCc1ccc(C[C@H](N)C(=O)O)cc1; X1 = C[C@@](CCCCC=[*:3])(N[*:1])C(=O)[*:2]; mXylylene = c1cc(C[*:1])cc(C[*:2])c1; Aad = N[C@@H](CCCC(=O)O)C(=O)O; Agp = N=C(N)NC[C@H](N)C(=O)O; Chg = N[C@H](C(=O)O)C1CCCCC1; Tle = CC(C)(C)[C@H](N)C(=O)O; αMeK = C[C@](N)(CCCCN)C(=O)O; αMeV = CC(C)[C@](C)(N)C(=O)O; Nva = CCC[C@H](N)C(=O)O; Aib = CC(C)(N)C(=O)O; Mpa = O=C(O)CCS

Sequence of human PCSK9 / human LDLR EGFa domain interaction (Q8NBP7 153-692): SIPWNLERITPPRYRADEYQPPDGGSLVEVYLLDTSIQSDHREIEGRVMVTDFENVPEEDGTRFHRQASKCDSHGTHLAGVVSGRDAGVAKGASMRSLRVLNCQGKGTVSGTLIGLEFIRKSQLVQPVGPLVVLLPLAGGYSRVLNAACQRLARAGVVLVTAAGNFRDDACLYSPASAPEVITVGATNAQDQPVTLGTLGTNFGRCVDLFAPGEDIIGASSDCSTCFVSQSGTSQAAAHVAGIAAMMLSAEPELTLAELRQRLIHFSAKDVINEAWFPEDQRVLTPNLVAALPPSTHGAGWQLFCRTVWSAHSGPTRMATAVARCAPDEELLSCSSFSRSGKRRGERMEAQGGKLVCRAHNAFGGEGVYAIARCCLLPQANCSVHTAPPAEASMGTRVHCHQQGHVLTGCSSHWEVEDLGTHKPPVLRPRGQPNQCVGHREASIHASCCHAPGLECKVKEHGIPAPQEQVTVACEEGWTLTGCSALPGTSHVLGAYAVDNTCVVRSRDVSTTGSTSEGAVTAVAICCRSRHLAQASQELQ
Sequence of human PCSK9 / human LDLR EGFa domain interaction (Q8NBP7 31-152 partner limits assumed): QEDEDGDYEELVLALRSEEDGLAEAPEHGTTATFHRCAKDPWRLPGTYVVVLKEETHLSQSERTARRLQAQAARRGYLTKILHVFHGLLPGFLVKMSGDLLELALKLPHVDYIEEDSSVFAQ
T1 sequence (Q8NBP7 153-692): as the sequence (Q8NBP7 153-692) above

On to `CC(C)[C@]1(C)NC(=O)[C@H](Cc2ccc(O)cc2)NC(=O)[C@H](C)NC(=O)[C@](C)(CCCCN)NC(=O)[C@H](Cc2c[nH]c3ncccc23)NC(=O)[C@H]([C@@H](C)O)NC(=O)[C@@H]2CCCN2C(=O)[C@H](Cc2ccc(O)cc2)NC(=O)[C@H](C(C)(C)C)NC(=O)CCSCc2cccc(c2)CSC[C@@H](C(N)=O)NC(=O)[C@H]([C@@H](C)O)NC1=O` [Compound 023] ([Mpa][Tle]YPT[Trp(7-aza)][αMeK]AY[αMeV]TC-NH2; linker 1-12 via mXylylene), for which the IC50 (in test [1]; on PCSK9) was 1 to 100 nM in each case.
In the case of `CCC[C@@H]1NC(=O)[C@H](Cc2cncc3ccccc23)NC(=O)[C@H]([C@@H](C)O)CC(=O)[C@H](Cc2cnc[nH]2)NC(=O)[C@H](Cc2ccc(O)cc2)NC(=O)[C@H](C(C)(C)C)NC(=O)CCSCc2cccc(c2)CSC[C@@H](C(N)=O)NC(=O)[C@H]([C@@H](C)O)NC(=O)[C@H](CCC)NC(=O)[C@H](Cc2ccc(O)cc2)NC(=O)[C@H](CCC(=O)O)NC1=O` [Compound 052] ([Mpa][Tle]Y[X6][Ala(4-isoquinolinyl)][Nva]EY[Nva]TC-NH2; linker 1-11 via mXylylene), the 50% inhibitory concentration (IC50) (in test [1]; at PCSK9) was 100 to 1000 nM each time.
Take `CCC[C@@H]1NC(=O)[C@H](Cc2c[nH]c3ncccc23)NC(=O)[C@H]([C@@H](C)O)NC(=O)[C@H](Cc2cnc[nH]2)NC(=O)[C@H](Cc2ccc(O)cc2)NC(=O)[C@H](C(C)(C)C)NC(=O)CCSCc2cccc(c2)CSC[C@@H](C(N)=O)NC(=O)[C@H]([C@@H](C)O)NC(=O)[C@H](Cc2ccc(O)cc2)NC(=O)[C@H](Cc2ccc(O)cc2)NC(=O)[C@H](CCC(=O)O)NC1=O` [Compound 071] ([Mpa][Tle]YHT[Trp(7-aza)][Nva]EYYTC-NH2; linker 1-12 via mXylylene): the IC50 in test [1] fell in the range of 100 to 1000 nM; at PCSK9, 1 to 100 nM.
As for `CCC[C@@H]1NC(=O)[C@H](Cc2c[nH]c3ncccc23)NC(=O)[C@H]([C@@H](C)O)NC(=O)[C@H](Cc2cnc[nH]2)NC(=O)[C@H](Cc2ccc(O)cc2)NC(=O)[C@H](Cc2ccc(CN)cc2)NC(=O)CCSCc2cccc(c2)CSC[C@@H](C(N)=O)NC(=O)[C@H]([C@@H](C)O)NC(=O)[C@H](CCC)NC(=O)[C@H](Cc2ccc(O)cc2)NC(=O)[C@H](CCC(=O)O)NC1=O` [Compound 086] ([Mpa][Phe(4-CH2NH2)]YHT[Trp(7-aza)][Nva]EY[Nva]TC-NH2; linker 1-12 via mXylylene), the half-maximal inhibitory concentration (IC50) (in test [1]; at PCSK9) was 100 to 1000 nM throughout.
For `CCC[C@@H]1NC(=O)[C@H](Cc2c[nH]c3ncccc23)NC(=O)[C@H]([C@@H](C)O)NC(=O)[C@H](CNC(=N)N)NC(=O)[C@H](Cc2ccc(O)cc2)NC(=O)[C@H](Cc2cc3cc(F)ccc3[nH]2)NC(=O)[C@@H](NC(=O)[C@H](Cc2ccc(NC(=N)N)cc2)NC(C)=O)CSCc2cccc(c2)CSC[C@@H](C(N)=O)NC(=O)[C@H]([C@@H](C)O)NC(=O)[C@H](CCC)NC(=O)[C@H](Cc2ccc(O)cc2)NC(=O)[C@H](CCC(=O)O)NC1=O` [Compound 091] (Ac-[Phe(4-guanidino)]C[X4]Y[Agp]T[Trp(7-aza)][Nva]EY[Nva]TC-NH2; linker 2-13 via mXylylene), the figures for the IC50 (in test [1]; at PCSK9) were 100 to 1000 nM and 1 to 100 nM, respectively.
For the compound `CCC[C@@H]1NC(=O)[C@H](Cc2c[nH]c3ncccc23)NC(=O)[C@H]([C@@H](C)O)NC(=O)[C@H](Cc2cnc[nH]2)NC(=O)[C@H](Cc2ccc(O)cc2)NC(=O)[C@H]([C@@H](C)c2c[nH]c3ccccc23)NC(=O)CCSCc2cccc(c2)CSC[C@@H](C(N)=O)NC(=O)[C@H]([C@@H](C)O)NC(=O)[C@H](CCC)NC(=O)[C@H](Cc2ccc(O)cc2)NC(=O)[C@H](CCC(=O)O)NC1=O` [Compound 097] ([Mpa][Trp(βS-Me)]YHT[Trp(7-aza)][Nva]EY[Nva]TC-NH2; linker 1-12 via mXylylene), the IC50 (in test [1]; on PCSK9) was 1 to 100 nM in each case.
Consider `CCC[C@@H]1NC(=O)[C@H](Cc2c[nH]c3ncccc23)NC(=O)[C@H]([C@@H](C)O)NC(=O)[C@H](Cc2cnc[nH]2)NC(=O)[C@H](Cc2ccc(O)cc2)NC(=O)[C@H](C(C)(C)C)NC(=O)[C@@H](NC(=O)[C@H](Cc2ccc(CNC(=N)N)cc2)NC(C)=O)CSCc2cccc(c2)CSC[C@@H](C(N)=O)NC(=O)[C@H]([C@@H](C)O)NC(=O)[C@H](CCC)NC(=O)[C@H](Cc2ccc(O)cc2)NC(=O)[C@H](CCC(=O)O)NC1=O` [Compound 098] (Ac-[X3]C[Tle]YHT[Trp(7-aza)][Nva]EY[Nva]TC-NH2; linker 2-13 via mXylylene), for which the IC50 fell in the range of 21000 to 50000 nM in test [1] and 100 to 1000 nM at PCSK9.
On the same counts, the results for `CCC[C@@H]1NC(=O)[C@H](Cc2ccc(O)cc2)NC(=O)[C@H](C)NC(=O)[C@]2(C)CC/C=C\CCCC[C@](C)(NC1=O)C(=O)N[C@H](C(N)=O)CCCCNC(=O)CCC[C@H](NC(C)=O)C(=O)N[C@@H](C(C)(C)C)C(=O)N[C@@H](Cc1ccc(O)cc1)C(=O)N1CCC[C@H]1C(=O)N[C@@H]([C@@H](C)O)C(=O)N[C@@H](Cc1c[nH]c3ncccc13)C(=O)N2` [Compound 104] (Ac-[Aad][Tle]YPT[Trp(7-aza)][αMeNva(5-ylidene)]AY[Nva][X1]K-NH2; lactam 1-12; staple (Z) 7-11) are 1000 to 12100 nM and 100 to 1000 nM.
For `CCC[C@@H]1NC(=O)[C@H](Cc2c[nH]c3ncccc23)NC(=O)[C@H]([C@@H](C)O)NC(=O)[C@@H]2CCCCNC(=O)CC[C@H](NC1=O)C(=O)N[C@@H](Cc1ccc(O)cc1)C(=O)N[C@@H](C1CCCCC1)C(=O)N[C@@H]([C@@H](C)O)C(=O)N[C@@H](C(N)=O)CSCc1cccc(c1)CSCCC(=O)N[C@@H](C(C)(C)C)C(=O)N[C@@H](Cc1ccc(O)cc1)C(=O)N2` [Compound 107] ([Mpa][Tle]YKT[Trp(7-aza)][Nva]EY[Chg]T[dC]-NH2; linker 1-12 via mXylylene; lactam 4-8) the same measures were 1 to 100 nM and 1 to 100 nM.
On the same counts, the results for `CCC[C@@H]1NC(=O)[C@H](Cc2ccc(O)cc2)NC(=O)[C@@H]2CCC(=O)NCCCC[C@H](NC(=O)[C@H](Cc3ccc(O)cc3)NC(=O)[C@H](C(C)(C)C)NC(=O)CCSCc3cccc(c3)CSC[C@@H](C(N)=O)NC(=O)[C@H]([C@@H](C)O)NC1=O)C(=O)N[C@@H]([C@@H](C)O)C(=O)N[C@@H](Cc1c[nH]c3ncccc13)C(=O)NC(C)(C)C(=O)N2` [Compound 110] ([Mpa][Tle]YKT[Trp(7-aza)][Aib]EY[Nva]TC-NH2; linker 1-12 via mXylylene; lactam 4-8) are 1 to 100 nM and 1 to 100 nM.
